PubChem BioAssay AID330 (DTP/NCI, 2004)
Where “and” joins values, the source holds several entries; their conditions need not be identical. Equal values may be shown once. Toxic doses and inconclusive results are not listed. Bridge positions count the residues as written; N and C are the ends. Peptide text beside a SMILES is read from it. I, II: the chains in the order shown.

Test system: P388 leukemia ip, CD2F1 mice, survival T/C
Assay: NCI In Vivo Anticancer Drug Screen. Data for tumor model P388 Leukemia (intraperitoneal) in CD2F1 (CDF1) mice
Conditions: endpoint: median survival time, higher = longer survival
How it was run: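 Mice carrying the transplanted tumor received test compound or vehicle. Survival was recorded in each group, and the value is the treated-group measurement divided by that of the vehicle-treated control group.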

[1] = dose: 25.0 mg/kg/injection, schedule: Q01DX009 (ip), vehicle: saline
[2] = dose: 50.0 mg/kg/injection, schedule: Q01DX009 (ip), vehicle: saline
[3] = dose: 100.0 mg/kg/injection, schedule: Q01DX009 (ip), vehicle: saline
[4] = dose: 50.0 mg/kg/injection, schedule: Q01DX005 (ip), vehicle: saline with Tween-80
[5] = dose: 100.0 mg/kg/injection, schedule: Q01DX005 (ip), vehicle: saline with Tween-80
[6] = dose: 200.0 mg/kg/injection, schedule: Q01DX005 (ip), vehicle: saline with Tween-80
[7] = dose: 100.0 mg/kg/injection, schedule: Q01DX001 (ip), vehicle: saline with Tween-80
[8] = dose: 200.0 mg/kg/injection, schedule: Q01DX001 (ip), vehicle: saline with Tween-80
[9] = dose: 400.0 mg/kg/injection, schedule: Q01DX001 (ip), vehicle: saline with Tween-80
[10] = dose: 12.5 mg/kg/injection, schedule: Q01DX005 (ip), vehicle: saline with Tween-80
[11] = dose: 25.0 mg/kg/injection, schedule: Q01DX005 (ip), vehicle: saline with Tween-80
[12] = dose: 100.0 mg/kg/injection, schedule: Q01DX001 (ip), vehicle: Klucel (hydroxypropylcellulose) (HPC)
[13] = dose: 200.0 mg/kg/injection, schedule: Q01DX001 (ip), vehicle: Klucel (hydroxypropylcellulose) (HPC)
[14] = dose: 50.0 mg/kg/injection, schedule: Q01DX005 (ip), vehicle: Klucel (hydroxypropylcellulose) (HPC)
[15] = dose: 100.0 mg/kg/injection, schedule: Q01DX005 (ip), vehicle: Klucel (hydroxypropylcellulose) (HPC)
[16] = dose: 200.0 mg/kg/injection, schedule: Q01DX005 (ip), vehicle: Klucel (hydroxypropylcellulose) (HPC)
[17] = dose: 60.0 mg/kg/injection, schedule: Q01DX005 (ip), vehicle: saline with Tween-80
[18] = dose: 120.0 mg/kg/injection, schedule: Q01DX005 (ip), vehicle: saline with Tween-80
[19] = dose: 240.0 mg/kg/injection, schedule: Q01DX005 (ip), vehicle: saline with Tween-80
[20] = dose: 200.0 mg/kg/injection, schedule: Q01DX009 (ip), vehicle: saline

For `NC(=O)c1[nH]cnc1N`, the T/C [1] was 99 % of control, the T/C [2] was 105 % of control and the T/C [3] was 99 % of control. For the same compound, the T/C (dose: 400.0 mg/kg/injection, schedule: Q01DX009 (ip), vehicle: saline) was 87 % of control.
In the case of `O=C(/N=C1\N=Nc2nc(CC(=O)c3cccc4ccccc34)c(O)n21)Nc1ccc(Cl)cc1`, the T/C [4] is reported as 96 % of control, the T/C [5] is reported as 103 % of control and the T/C [6] is reported as 104 % of control.
With `O=C(O)Cc1cnc[nH]1` the T/C (dose: 6.25 mg/kg/injection, schedule: Q01DX009 (ip), vehicle: saline) was 100 % of control, the T/C (dose: 12.5 mg/kg/injection, schedule: Q01DX009 (ip), vehicle: saline) was 106 % of control and the T/C [1] was 97 % of control. The T/C [2] was 99 % of control.
With `CCCC(Cc1ccccc1)C(=O)O` (stereo unspecified) the T/C [7] was 123 % of control, the T/C [8] was 108 % of control and the T/C [9] was 124 % of control.
`CC1C(=O)C=C(c2ccccc2)C1(O)c1ccccc1` (stereo unspecified) was tested, and the T/C [7] was 104 % of control and the T/C [8] was 103 % of control.
For `N#C[C@H]1C[C@@H](c2ccc([N+](=O)[O-])cc2)N(c2ccc(C=O)cc2)O1`, the T/C [7] was 98 % of control, the T/C [8] was 98 % of control and the T/C [9] was 99 % of control.
For `Cc1nc2scc(-c3ccccc3)n2c(=O)c1CN1CCOCC1`, the T/C (dose: 37.5 mg/kg/injection, schedule: Q04DX002 (ip), vehicle: Klucel (hydroxypropylcellulose) (HPC)) was 106 % of control, the T/C (dose: 75.0 mg/kg/injection, schedule: Q04DX002 (ip), vehicle: Klucel (hydroxypropylcellulose) (HPC)) was 97 % of control and the T/C (dose: 150.0 mg/kg/injection, schedule: Q04DX002 (ip), vehicle: Klucel (hydroxypropylcellulose) (HPC)) was 103 % of control.
With `COc1ccc(/C=C/C(C)=N/NC(N)=S)cc1OC` the T/C [10] was 104 % of control, the T/C [11] was 106 % of control and the T/C [4] was 105 % of control and 112 % of control. The T/C [5] was 93 % of control.
With `CC(CC(=O)c1ccccc1)=NCCN=C(C)CC(=O)c1ccccc1.[Cl][Sn][Cl]` the T/C [12] was 97 % of control, the T/C [13] was 102 % of control and the T/C (dose: 400.0 mg/kg/injection, schedule: Q01DX001 (ip), vehicle: Klucel (hydroxypropylcellulose) (HPC)) was 101 % of control.
In the case of `CC(=O)N1C(CO)C(O)C(O)C1n1cnc2c(N)ncnc21` (stereo unspecified), the T/C [14] is reported as 95 % of control, the T/C [15] is reported as 100 % of control and the T/C [16] is reported as 100 % of control. The T/C (dose: 300.0 mg/kg/injection, schedule: Q01DX005 (ip), vehicle: Klucel (hydroxypropylcellulose) (HPC)) was 100 % of control.
`CC(=O)O[C@H]1CC[C@]2(C)C34OC3C[C@]3(C)[C@@H](C(C)=O)CC[C@H]3[C@]43C=C[C@@]2(C1)C1C(=O)OC(=O)C13` (stereo partly specified) was tested, and the T/C [14] was 112 % of control and the T/C [15] was 106 % of control.
With `CCCCCCCCCCCC(=O)NCCOCCOCCOCCOCCOCCOCCOCCOCCO` (tested in a mixture with another compound) the T/C [4] was 98 % of control, the T/C [5] was 102 % of control and the T/C [6] was 96 % of control.
With `O=C(Nc1ccccc1)Sc1ccc(Cl)cc1` the T/C [11] was 115 % of control, the T/C [4] was 121 % of control and the T/C [5] was 115 % of control and 123 % of control. The T/C [6] was 124 % of control.
With `c1ccc(CC2NC(Cc3ccccc3)N3C(Cc4ccccc4)N23)cc1` (stereo unspecified) the T/C (dose: 100.0 mg/kg/injection, schedule: Q04DX003 (ip), vehicle: Klucel (hydroxypropylcellulose) (HPC)) was 102 % of control, the T/C (dose: 200.0 mg/kg/injection, schedule: Q04DX003 (ip), vehicle: Klucel (hydroxypropylcellulose) (HPC)) was 100 % of control and the T/C (dose: 400.0 mg/kg/injection, schedule: Q04DX003 (ip), vehicle: Klucel (hydroxypropylcellulose) (HPC)) was 93 % of control.
For `CC(=O)N(c1ccncc1)c1ccc([N+](=O)[O-])cc1`, the T/C [17] was 94 % of control, the T/C [18] was 92 % of control and the T/C [19] was 88 % of control.
For `O/N=C/C(=Nc1ccc2ccccc2c1)NO`, the T/C (dose: 60.0 mg/kg/injection, schedule: Q01DX005 (ip), vehicle: Klucel (hydroxypropylcellulose) (HPC)) was 102 % of control, the T/C (dose: 120.0 mg/kg/injection, schedule: Q01DX005 (ip), vehicle: Klucel (hydroxypropylcellulose) (HPC)) was 98 % of control and the T/C (dose: 240.0 mg/kg/injection, schedule: Q01DX005 (ip), vehicle: Klucel (hydroxypropylcellulose) (HPC)) was 98 % of control.
With `CCCOC1NC(=O)Oc2ccccc21` (stereo unspecified) the T/C [17] was 101 % of control and 104 % of control and 106 % of control, the T/C [18] was 104 % of control and 111 % of control and 117 % of control and the T/C [19] was 114 % of control and 117 % of control.
`S=C(S)n1nc(-c2ccccc2)c(N=Nc2cccc(Cl)c2Cl)c1-c1ccccc1` was tested, and the T/C (dose: 100.0 mg/kg/injection, schedule: Q04DX002 (ip), vehicle: saline with Tween-80) was 93 % of control, the T/C (dose: 200.0 mg/kg/injection, schedule: Q04DX002 (ip), vehicle: saline with Tween-80) was 93 % of control and the T/C (dose: 400.0 mg/kg/injection, schedule: Q04DX002 (ip), vehicle: saline with Tween-80) was 109 % of control.
For `CCN(CC)C(C)=S`, the T/C [17] was 103 % of control, the T/C [18] was 110 % of control and the T/C [19] was 104 % of control.
With `NC(CSSCC(N)C(=O)NC(Cc1ccc(O)cc1)C(=O)O)C(=O)NC(Cc1ccc(O)cc1)C(=O)O` (stereo not drawn) (I: H-Cys-Tyr-OH / II: H-Cys-Tyr-OH; disulfide I:1-II:1; configuration not given here) the T/C (dose: 50.0 mg/kg/injection, schedule: Q01DX005 (ip), vehicle: saline) was 110 % of control, the T/C (dose: 100.0 mg/kg/injection, schedule: Q01DX005 (ip), vehicle: saline) was 111 % of control and the T/C (dose: 200.0 mg/kg/injection, schedule: Q01DX005 (ip), vehicle: saline) was 103 % of control.
For `NC(=O)c1ccccc1NC(=O)CCCC(=O)O`, the T/C [2] was 98 % of control, the T/C [3] was 108 % of control and the T/C [20] was 97 % of control.
`Clc1ncnc2c1ncn2C1C=CC=CC=C1` was tested, and the T/C [14] was 90 % of control, the T/C [15] was 92 % of control and the T/C [16] was 91 % of control.
For `Cc1cc2nc3[nH]c(=O)c4ccccc4c(=O)n3c2cc1C`, the T/C [12] was 98 % of control and the T/C [13] was 92 % of control.
For `O=C1C(Cl)=C(Nc2cc(Cl)ccc2Cl)C(=O)c2ccccc21`, the T/C [17] was 98 % of control, the T/C [18] was 102 % of control and the T/C [19] was 101 % of control.
With `N=C1C=C(N)CS1` the T/C [2] was 87 % of control, the T/C [3] was 86 % of control and the T/C [20] was 88 % of control.
In the case of `O/N=C\c1cc2ccccc2c[n+]1Cc1ccc2ccc3cccc4ccc1c2c34`, the T/C (dose: 6.25 mg/kg/injection, schedule: Q01DX005 (ip), vehicle: saline with Tween-80) is reported as 108 % of control and the T/C [10] is reported as 108 % of control.
`c1cc2cc(-c3ccc4cc(-c5ccc6oc(C7=NCCN7)cc6c5)[nH]c4c3)[nH]c2cc1C1=NCCN1` was tested, and the T/C [14] was 156 % of control, the T/C [15] was 114 % of control and the T/C [16] was 91 % of control.
With `O=C1CSC(C2CC=CCC2)N1c1nncs1` (stereo unspecified) the T/C [4] was 100 % of control, the T/C [5] was 91 % of control and the T/C [6] was 90 % of control.
With `COc1ccc(Cl)cc1Cn1ccnc1` the T/C [17] was 97 % of control and the T/C [18] was 103 % of control.
For `Nc1nc(Br)c(Br)nc1N`, the T/C (dose: 100.0 mg/kg/injection, schedule: Q04DX003 (ip), vehicle: other) was 100 % of control, the T/C (dose: 200.0 mg/kg/injection, schedule: Q04DX003 (ip), vehicle: other) was 100 % of control and the T/C (dose: 400.0 mg/kg/injection, schedule: Q04DX003 (ip), vehicle: other) was 95 % of control.
For `CCCNc1nc(C)nc2[nH]cc(C)c12`, the T/C [14] was 100 % of control and the T/C [15] was 102 % of control.
For `C1#CCCCCCC#CCCCC1`, the T/C (dose: 20.0 mg/kg/injection, schedule: Q01DX009 (ip), vehicle: saline with Tween-80) was 109 % of control, the T/C (dose: 30.0 mg/kg/injection, schedule: Q01DX009 (ip), vehicle: saline with Tween-80) was 104 % of control and the T/C (dose: 44.0 mg/kg/injection, schedule: Q01DX009 (ip), vehicle: saline with Tween-80) was 100 % of control. For the same compound, the T/C (dose: 66.0 mg/kg/injection, schedule: Q01DX009 (ip), vehicle: saline with Tween-80) was 104 % of control, the T/C (dose: 100.0 mg/kg/injection, schedule: Q01DX009 (ip), vehicle: saline with Tween-80) was 104 % of control and the T/C (dose: 150.0 mg/kg/injection, schedule: Q01DX009 (ip), vehicle: saline with Tween-80) was 109 % of control.
`O=c1/c(=C/c2ccc(Cl)cc2)sc2nc(-c3ccccc3)nn12` was tested, and the T/C (dose: 50.0 mg/kg/injection, schedule: Q01DX009 (ip), vehicle: Klucel (hydroxypropylcellulose) (HPC)) was 94 % of control, the T/C (dose: 100.0 mg/kg/injection, schedule: Q01DX009 (ip), vehicle: Klucel (hydroxypropylcellulose) (HPC)) was 95 % of control and the T/C (dose: 200.0 mg/kg/injection, schedule: Q01DX009 (ip), vehicle: Klucel (hydroxypropylcellulose) (HPC)) was 101 % of control.
